Test results published in patent US20220133846A1, “NOVEL ANTIMICROBIAL COMPOUND AND USES THEREOF” (priority 2019, published 2022).
Values after ≈ are worked out from the molar mass of the structure shown. Values joined by “and” are separate entries in the source; they are usually repeats but may differ in a detail not shown here. Equal values may be shown once. “Also recorded” adds a separate entry of the source. Read-outs that look alike come from different tables or passages of the source.

Columns and labels:
[1] = test system: S. aureus or MRSA; experiment: Bacteriolytic activity (time-kill, OD600); assay type: cell-based; conditions: twice the MIC, mid-exponential growth, over 20 hours
[2] = test system: S. aureus (ATCC #29213); assay type: cell-based
[3] = test system: MDR S. aureus (CH-11); experiment: Frequency of resistance (FoR) in vitro; assay type: cell-based
[4] = test system: A. baumannii (CH-46); experiment: Frequency of resistance (FoR) in vitro; assay type: cell-based
[5] = test system: S. aureus; experiment: Thermal and chemical (pH) short-term stability, antibacterial activity remaining; assay type: physicochemical; conditions: 4 to 60° C. for 18 hours, and 37° C. at pH 3.0-9.0
Procedure: Samples were clarified by centrifugation (16,000×g for 5 min) and soluble fractions were tested for antibacterial activity (against S. aureus) and examined by analytical HPLC.

[6] = Stability in human serum or plasma (MIC after incubation); assay type: in vitro ADME
Procedure: Stability studies were also performed in the presence of plasma or serum, or in whole blood.

[7] = Stability in whole blood and plasma (zone of inhibition, diffusion method); assay type: in vitro ADME, mouse; conditions: for Whole blood ZOI: 400 μg/mL added to mouse whole blood; for Plasma fraction ZOI: plasma from treated whole blood
Procedure: The antimicrobial activity remaining in blood was measured by the diffusion method and expressed as the zone of inhibition (ZOI), proportional to the amount of activity remaining in blood (Table 11). Zone of inhibition (ZOI) is a zone of bacteria free agar plate after depositing 2 μL of a tested sample. In parallel, CMB001 treated blood was centrifuged to remove blood cells and the level of CMB001 was tested in the supernatant (plasma).

[8] = test system: S. aureus NRS 384 (USA300-0114); experiment: Murine neutropenic thigh infection model; assay type: in vivo, mice
[9] = test system: Staphylococcus haemolyticus strain JCM 2416
[10] = test system: Acinetobacter baumannii
[11] = test system: Enterococcus faecalis strain NBRC 100480
[12] = 1 mg/mL solution, pH 7.0, 10 minutes, centrifugation
[13] = IV 30 mg/kg; for AUC % Back Extrapolation to C0 / AUC % Extrapolation to infinity / tlast: blood; for Mean Concentration in blood: male CD1 mice
[14] = in vivo; conditions: male, CD1, mouse, iv, 30 mg/kg; for clearance / MRT / Vd / half-life: blood; for clearance: CL/CL_F; for clearance / MRT / Vd: IV 30 mg/kg; for Vd: Vdss; for half-life: t1/2, IV 30 mg/kg
[15] = test system: J774A mouse BALB/c cells; experiment: Toxicity to mammalian cells (cell viability); conditions: up to 1,500 μg/mL, 24 hours
[16] = individual animals 1-3, 30 mg/kg

For `C=C(NC(=O)[C@@H](NC(=O)[C@H](Cc1c[nH]cn1)NC(=O)[C@@H]1CS[C@@H](C)[C@H]2NC(=O)[C@H](C)NC(=O)[C@H](NC(=O)[C@H](CCC(N)=O)NC(=O)[C@@H](NC(=O)[C@H](Cc3ccccc3)NC(=O)[C@@H]3CS[C@@H](C)[C@@H](NC(=O)[C@@H](NC(=O)[C@@H]4CS[C@@H](C)[C@@H](NC(=O)[C@@H]5CSC[C@@H](NC(=O)[C@H](CCCCN)NC(=O)[C@@H](N)Cc6c[nH]c7ccccc67)C(=O)N[C@@H](CCC(N)=O)C(=O)NC(=C)C(=O)N[C@@H](Cc6ccccc6)C(=O)N5)C(=O)N5CCC[C@H]5C(=O)NCC(=O)N4)C(C)C)C(=O)NCC(=O)N[C@@H](C(C)C)C(=O)N[C@@H](CC(C)C)C(=O)N[C@@H](CCC(N)=O)C(=O)N/C(=C\C)C(=O)N3)[C@@H](C)CC)[C@H](C)SC[C@H](NC2=O)C(=O)N[C@@H](CC(N)=O)C(=O)N1)[C@@H](C)CC)C(=O)N[C@@H](CCCCN)C(=O)O` [CMB001, WKAQX1FAX3PGAVX3GVLQX2AFIQX3AX3ANAHIX1K (SEQ ID NO: 1)], the “Bacteriolytic activity, change of OD600” value [1] was “marked decrease of OD600”, the “Frequency of resistance (FoR)” value ([2]; 2X MIC) was 1.3 × 10^−8 and the “Frequency of resistance (FoR)” value ([2]; 3X MIC) was 2.2 × 10^−9. The “Frequency of resistance (FoR)” value ([2]; 4X MIC) was 2.6 × 10^−9, the “Frequency of resistance (FoR)” value ([2]; 5X MIC) was 3.7 × 10^−10 and the “Frequency of resistance (FoR)” value ([2]; 10X MIC) was <3.7 × 10^−10. For the same molecule, the “Frequency of resistance (FoR)” value ([3]; 2X MIC) was 3.5 × 10^−9, the “Frequency of resistance (FoR)” value ([3]; 3X MIC) was 1.8 × 10^−9 and the “Frequency of resistance (FoR)” value ([3]; 4X MIC) was 2.9 × 10^−8. For the same molecule, the “Frequency of resistance (FoR)” value ([3]; 5X MIC) was 5.3 × 10^−10, the “Frequency of resistance (FoR)” value ([3]; 10X MIC) was <3.2 × 10^−10 and the “Frequency of resistance (FoR)” value ([4]; 2X MIC) was 1.1 × 10^−7. The “Frequency of resistance (FoR)” value ([4]; 3X MIC) was 2.9 × 10^−9, the “Frequency of resistance (FoR)” value ([4]; 5X MIC) was <1 × 10^−11 and the “Frequency of resistance (FoR)” value ([4]; 10X MIC) was <1 × 10^−11. For the same molecule, the “Antibacterial activity (MIC) and chemical integrity after incubation” value [5] was “retained its full antibacterial activity (MIC) and chemical integrity”, the “Antibacterial activity after incubation in human serum or plasma” value ([6]; 8-hour incubation at 37° C.) was “retained full antibacterial activity” and the “Antibacterial activity after incubation in human serum or plasma” value ([6]; 24-hour incubation) was “somewhat less active”. The “Whole blood ZOI” value ([7]; 10 minutes) was 10 mm, the “Whole blood ZOI” value ([7]; 60 minutes) was 9 mm and the “Whole blood ZOI” value ([7]; 120 minutes) was 8 mm. For the same molecule, the “Whole blood ZOI” value ([7]; 180 minutes) was 8 mm, the “Whole blood ZOI” value ([7]; 240 minutes) was 8 mm and the “Adsorption onto blood cells” value ([7]; mouse blood, 400 μg/mL) was “not adsorbed onto blood cells”. For the same molecule, the “Activity in whole blood” value ([7]; mouse blood, 400 μg/mL, 0-4 hours) was “retains full activity in whole blood”, the “Plasma fraction ZOI” value ([7]; 10 minutes) was 11 mm and the “Plasma fraction ZOI” value ([7]; 60 minutes) was 9 mm. For the same molecule, the “Plasma fraction ZOI” value ([7]; 120 minutes) was 8 mm, the “Plasma fraction ZOI” value ([7]; 180 minutes) was 8 mm and the “Plasma fraction ZOI” value ([7]; 240 minutes) was 7 mm. The “Spiked plasma control ZOI” value ([7]; plasma spiked with CMB001, 10 minutes) was 9 mm, the “Spiked plasma control ZOI” value ([7]; plasma spiked with CMB001, 60 minutes) was 11 mm and the “Spiked plasma control ZOI” value ([7]; plasma spiked with CMB001, 120 minutes) was 11 mm. The “Spiked plasma control ZOI” value ([7]; plasma spiked with CMB001, 180 minutes) was 11 mm, the “Spiked plasma control ZOI” value ([7]; plasma spiked with CMB001, 240 minutes) was 10 mm and the “Bacterial burden compared to vehicle control” value ([8]; 0.5 to 10 mg/kg IV) was “dose dependent reduction of bacterial burden; also recorded: dose-dependent reduction of S. aureus in the thigh”. For the same molecule, the “Thigh burden compared to vehicle-treated group” value ([8]; 5 to 30 mg/kg IV at 1, 8 and 15 hours post-infection) was “Significant reduction of thigh burden”, the “Survival to end of study” value ([8]; 5 to 30 mg/kg IV, 25 h post-infection) was “Most CMB001-treated animals survived until the end of the study” and the “Thigh burden relative to pre-treatment levels” value ([8]; all doses, 5 to 30 mg/kg IV) was “reduced below pre-treatment levels”. For the same molecule, the MIC [9] was 6.25 µg/mL (≈ 1.87 µM), the MIC range [10] was 3.4 to 27.7 µg/mL and the MIC90 [11] was 12.5 µg/mL (≈ 3.73 µM). For the same molecule, the MIC range [11] was 6.2 to 12.5 µg/mL, the “Solubility relative to initial concentration” value [12] was > 96% and the “Time at detectable levels in blood” value ([13]; LLOQ 500 ng/mL) was “at least 60 minutes”. For the same molecule, the “AUC % Back Extrapolation to C0” value ([13]; Mean/Median) was 16%, the “AUC % Extrapolation to infinity” value ([13]; Mean/Median) was 29% and the tlast ([13]; Mean/Median) was 1.00 h. The tlast ([13]; individual animals 1-3) was 1.00 h, the “AUC % Back Extrapolation to C0” value [13, 16] was 23% and 12% and 13% and the “AUC % Extrapolation to infinity” value [13, 16] was 26% and 22% and 41%. The “Mean Concentration in blood” value ([13]; 2.00 hours, LLOQ 500 ng/mL) was “BLQ*”, the “Mean Concentration in blood” value ([13]; 4.00 hours, LLOQ 500 ng/mL) was “BLQ” and the “Mean Concentration in blood” value ([13]; 8.00 hours, LLOQ 500 ng/mL) was “BLQ”. For the same molecule, the “Mean Concentration in blood” value ([13]; 24.00 hours, LLOQ 500 ng/mL) was “BLQ”, the clearance ([14]; Mean/Median) was 170 mL/min/kg and the clearance ([14]; individual animals 1-2) was 166 mL/min/kg. The MRT ([14]; Mean/Median) was 40.2 min, the MRT ([14]; individual animals 1-2) was 42.6 min and the Vd ([14]; Mean/Median) was 6.8 L/kg. The Vd ([14]; individual animals 1-2) was 7 L/kg, the half-life ([14]; Mean/Median) was 32.4 ± 9 min and the half-life ([14]; individual animals 1-2) was 38.4 min. It also gave a level at 0.08 h ([14]; whole blood) of 4770 ng/mL, a level at 0.25 h ([14]; whole blood) of 2450 ng/mL and a level at 0.5 h ([14]; whole blood) of 1280 ng/mL. It also gave a level at 1 h ([14]; whole blood) of 916 ng/mL, a level at time molar at 0.08 h ([14]; whole blood) of 1420 nM and a level at time molar at 0.25 h ([14]; whole blood) of 733 nM. The level at time molar at 0.5 h ([14]; whole blood) was 383 nM, the level at time molar at 1 h ([14]; whole blood) was 274 nM and the Cell viability [15] was “did not reduce cell viability”.
